This note sets out measurements from ChEMBL document CHEMBL5674866 (J Biol Chem, 2015).

Each structure is given as a SMILES string. Some results are limits rather than exact numbers.

Assay [1] concerns the target Phosphatidylinositol 4,5-bisphosphate 3-kinase catalytic subunit beta isoform (Homo sapiens, UniProt P42338). The assay is described as follows: Inhibition of human PIK3CB by discoverX kinome scan assay.
For assay [2], the target named is T1, Serine/threonine-protein kinase Nek2 (Homo sapiens, UniProt P51955).
T1 sequence (P51955 whole entry): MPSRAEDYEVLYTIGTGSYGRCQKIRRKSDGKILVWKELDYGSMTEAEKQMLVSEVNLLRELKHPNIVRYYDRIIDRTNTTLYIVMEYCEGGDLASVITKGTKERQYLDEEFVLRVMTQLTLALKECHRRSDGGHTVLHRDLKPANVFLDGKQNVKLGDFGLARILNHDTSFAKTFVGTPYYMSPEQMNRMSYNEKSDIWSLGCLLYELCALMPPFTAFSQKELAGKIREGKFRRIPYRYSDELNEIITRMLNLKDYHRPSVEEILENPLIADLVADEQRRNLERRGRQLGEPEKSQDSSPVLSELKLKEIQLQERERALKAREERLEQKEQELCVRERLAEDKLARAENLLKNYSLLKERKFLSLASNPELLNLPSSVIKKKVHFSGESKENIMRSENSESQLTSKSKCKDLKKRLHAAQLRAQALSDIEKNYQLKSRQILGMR
The assay is described as follows: Inhibition of human NEK2 by discoverX kinome scan assay.

For assay [3], the target named is Protein kinase C eta type (Homo sapiens, UniProt P24723). Kind of assay: Inhibition of human PRKCH by discoverX kinome scan assay.
Assay [4] concerns the target Serine/threonine-protein kinase MRCK beta (Homo sapiens, UniProt Q9Y5S2). Kind of assay: Inhibition of human MRCKB by discoverX kinome scan assay.
Assay [5] deals with T2, Mitogen-activated protein kinase 13 (Homo sapiens, UniProt O15264).
T2 sequence (O15264 whole entry): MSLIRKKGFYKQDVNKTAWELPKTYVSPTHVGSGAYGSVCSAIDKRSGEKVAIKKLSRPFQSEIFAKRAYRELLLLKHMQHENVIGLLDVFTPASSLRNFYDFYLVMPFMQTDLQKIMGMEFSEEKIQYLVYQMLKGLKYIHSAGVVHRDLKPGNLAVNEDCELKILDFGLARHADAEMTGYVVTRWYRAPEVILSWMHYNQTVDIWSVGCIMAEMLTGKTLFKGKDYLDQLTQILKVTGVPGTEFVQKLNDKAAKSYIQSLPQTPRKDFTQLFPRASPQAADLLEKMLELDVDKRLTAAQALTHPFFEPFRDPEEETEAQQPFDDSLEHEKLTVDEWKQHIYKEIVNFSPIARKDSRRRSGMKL
Kind of assay: Inhibition of human p38-delta by discoverX kinome scan assay.

Another assay concerns the target Myosin-IIIa (Homo sapiens, UniProt Q8NEV4). The assay is described as follows: Inhibition of human MYO3A by discoverX kinome scan assay.
The nature of assay [6]: Inhibition of human ABL1 pT315I mutant by discoverX kinome scan assay.
A short description of assay [7]: Inhibition of human ABL1 pM351T mutant by discoverX kinome scan assay.
The test system of a further assay is KYSE-150 cell line. The assay is described as follows: Effect on cellular post-translational modifications on histone […] (GKGGKGLGKGGAKR) - K5 acetylated , K8 unmethylated , K12 acetylated, K16 unmethylated in human KYSE-150 cells assessed as relative abundance at 5 by mass spectrometric analysis (reference value: 3+/-1.7). The note with it: dose 5 µM. Format: functional.

Assay [8] in a line: Inhibition of human ABL1 pH396P mutant by discoverX kinome scan assay.

Phosphatidylinositol 4,5-bisphosphate 3-kinase catalytic subunit beta isoform, sequence (P42338 whole entry, canonical isoform): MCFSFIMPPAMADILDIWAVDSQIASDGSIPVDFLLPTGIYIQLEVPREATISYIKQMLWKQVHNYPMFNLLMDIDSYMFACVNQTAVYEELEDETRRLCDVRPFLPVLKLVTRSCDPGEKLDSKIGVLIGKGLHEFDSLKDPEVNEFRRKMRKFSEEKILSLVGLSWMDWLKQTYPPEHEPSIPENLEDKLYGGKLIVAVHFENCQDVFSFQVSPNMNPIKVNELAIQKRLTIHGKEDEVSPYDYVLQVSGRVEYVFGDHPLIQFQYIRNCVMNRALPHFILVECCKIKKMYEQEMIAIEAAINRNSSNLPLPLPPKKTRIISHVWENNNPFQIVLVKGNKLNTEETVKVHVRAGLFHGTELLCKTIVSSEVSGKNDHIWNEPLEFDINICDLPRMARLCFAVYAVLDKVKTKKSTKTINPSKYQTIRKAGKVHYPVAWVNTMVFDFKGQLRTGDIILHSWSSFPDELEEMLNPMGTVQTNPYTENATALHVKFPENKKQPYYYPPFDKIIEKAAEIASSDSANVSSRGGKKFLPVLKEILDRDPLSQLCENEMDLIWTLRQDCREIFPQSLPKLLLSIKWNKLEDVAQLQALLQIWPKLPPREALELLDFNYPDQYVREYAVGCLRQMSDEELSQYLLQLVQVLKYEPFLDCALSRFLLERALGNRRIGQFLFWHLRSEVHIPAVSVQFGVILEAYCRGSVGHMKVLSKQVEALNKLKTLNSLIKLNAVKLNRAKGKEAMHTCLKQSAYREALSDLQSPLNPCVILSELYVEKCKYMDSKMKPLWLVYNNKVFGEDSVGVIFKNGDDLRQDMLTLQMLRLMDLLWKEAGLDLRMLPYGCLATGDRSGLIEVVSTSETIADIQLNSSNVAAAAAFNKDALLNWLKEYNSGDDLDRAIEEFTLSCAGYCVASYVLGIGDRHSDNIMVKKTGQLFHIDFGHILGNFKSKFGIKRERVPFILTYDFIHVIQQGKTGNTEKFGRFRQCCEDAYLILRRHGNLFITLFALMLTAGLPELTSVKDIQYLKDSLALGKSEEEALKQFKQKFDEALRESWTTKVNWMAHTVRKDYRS
Serine/threonine-protein kinase MRCK beta, sequence (Q9Y5S2 whole entry): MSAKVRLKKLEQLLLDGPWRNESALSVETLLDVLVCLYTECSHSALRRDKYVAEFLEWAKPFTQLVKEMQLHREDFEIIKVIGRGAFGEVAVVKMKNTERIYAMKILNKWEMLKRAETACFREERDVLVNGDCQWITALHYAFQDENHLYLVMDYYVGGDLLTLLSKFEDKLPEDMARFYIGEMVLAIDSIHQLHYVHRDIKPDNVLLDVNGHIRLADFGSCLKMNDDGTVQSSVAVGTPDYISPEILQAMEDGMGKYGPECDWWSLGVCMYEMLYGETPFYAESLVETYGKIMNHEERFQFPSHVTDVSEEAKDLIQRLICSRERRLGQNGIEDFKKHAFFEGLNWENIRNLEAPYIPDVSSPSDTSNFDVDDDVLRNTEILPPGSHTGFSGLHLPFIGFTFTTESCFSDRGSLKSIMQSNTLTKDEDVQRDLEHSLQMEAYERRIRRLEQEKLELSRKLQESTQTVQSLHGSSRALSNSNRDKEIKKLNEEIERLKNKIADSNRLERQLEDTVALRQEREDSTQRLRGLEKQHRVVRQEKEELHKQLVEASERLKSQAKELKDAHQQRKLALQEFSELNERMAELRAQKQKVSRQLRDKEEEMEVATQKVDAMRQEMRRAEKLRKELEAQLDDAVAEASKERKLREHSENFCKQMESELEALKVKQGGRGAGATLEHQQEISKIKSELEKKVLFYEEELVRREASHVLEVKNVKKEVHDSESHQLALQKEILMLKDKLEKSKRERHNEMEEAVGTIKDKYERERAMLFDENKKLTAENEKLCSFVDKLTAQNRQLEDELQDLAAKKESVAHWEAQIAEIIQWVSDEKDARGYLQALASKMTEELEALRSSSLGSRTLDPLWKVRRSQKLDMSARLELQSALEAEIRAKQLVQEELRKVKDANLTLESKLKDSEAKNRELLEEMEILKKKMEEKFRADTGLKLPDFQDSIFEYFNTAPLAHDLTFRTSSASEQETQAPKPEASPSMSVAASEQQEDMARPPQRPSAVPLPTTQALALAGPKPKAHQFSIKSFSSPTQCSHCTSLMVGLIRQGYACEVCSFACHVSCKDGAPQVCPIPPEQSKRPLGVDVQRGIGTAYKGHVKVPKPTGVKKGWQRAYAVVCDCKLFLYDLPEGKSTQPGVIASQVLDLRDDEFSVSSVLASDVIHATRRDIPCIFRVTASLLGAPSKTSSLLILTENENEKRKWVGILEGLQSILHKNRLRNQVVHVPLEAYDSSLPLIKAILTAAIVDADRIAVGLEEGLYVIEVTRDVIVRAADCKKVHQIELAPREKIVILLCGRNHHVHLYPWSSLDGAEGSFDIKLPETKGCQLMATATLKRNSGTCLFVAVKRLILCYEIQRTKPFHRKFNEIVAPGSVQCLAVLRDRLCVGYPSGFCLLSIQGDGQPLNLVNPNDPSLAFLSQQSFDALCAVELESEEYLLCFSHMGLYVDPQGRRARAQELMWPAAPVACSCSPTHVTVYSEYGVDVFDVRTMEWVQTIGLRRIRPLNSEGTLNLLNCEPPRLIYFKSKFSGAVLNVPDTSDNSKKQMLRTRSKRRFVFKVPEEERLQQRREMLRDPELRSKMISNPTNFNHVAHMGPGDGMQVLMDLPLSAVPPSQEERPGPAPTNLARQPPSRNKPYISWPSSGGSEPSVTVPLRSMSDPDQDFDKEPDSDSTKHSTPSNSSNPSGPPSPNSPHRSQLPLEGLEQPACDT
Protein kinase C eta type, sequence (P24723 whole entry): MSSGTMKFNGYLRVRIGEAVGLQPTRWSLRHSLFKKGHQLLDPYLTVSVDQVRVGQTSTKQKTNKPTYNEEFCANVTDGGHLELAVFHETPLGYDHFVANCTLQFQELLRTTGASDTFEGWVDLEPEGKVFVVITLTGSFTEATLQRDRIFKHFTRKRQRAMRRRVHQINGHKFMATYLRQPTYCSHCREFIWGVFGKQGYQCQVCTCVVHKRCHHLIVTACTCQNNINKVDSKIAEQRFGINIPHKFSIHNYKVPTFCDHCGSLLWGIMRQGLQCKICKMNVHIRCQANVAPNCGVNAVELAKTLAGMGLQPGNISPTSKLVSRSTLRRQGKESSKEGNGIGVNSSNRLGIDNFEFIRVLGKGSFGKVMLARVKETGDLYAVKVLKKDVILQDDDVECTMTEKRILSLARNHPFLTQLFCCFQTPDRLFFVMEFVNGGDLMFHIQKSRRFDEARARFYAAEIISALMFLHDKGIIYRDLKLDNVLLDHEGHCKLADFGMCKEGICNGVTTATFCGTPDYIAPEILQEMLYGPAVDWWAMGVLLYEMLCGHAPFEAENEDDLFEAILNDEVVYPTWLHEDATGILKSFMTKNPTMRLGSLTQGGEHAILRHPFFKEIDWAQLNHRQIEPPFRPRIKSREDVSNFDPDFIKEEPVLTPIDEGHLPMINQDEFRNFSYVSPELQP
Myosin-IIIa, sequence (Q8NEV4 whole entry): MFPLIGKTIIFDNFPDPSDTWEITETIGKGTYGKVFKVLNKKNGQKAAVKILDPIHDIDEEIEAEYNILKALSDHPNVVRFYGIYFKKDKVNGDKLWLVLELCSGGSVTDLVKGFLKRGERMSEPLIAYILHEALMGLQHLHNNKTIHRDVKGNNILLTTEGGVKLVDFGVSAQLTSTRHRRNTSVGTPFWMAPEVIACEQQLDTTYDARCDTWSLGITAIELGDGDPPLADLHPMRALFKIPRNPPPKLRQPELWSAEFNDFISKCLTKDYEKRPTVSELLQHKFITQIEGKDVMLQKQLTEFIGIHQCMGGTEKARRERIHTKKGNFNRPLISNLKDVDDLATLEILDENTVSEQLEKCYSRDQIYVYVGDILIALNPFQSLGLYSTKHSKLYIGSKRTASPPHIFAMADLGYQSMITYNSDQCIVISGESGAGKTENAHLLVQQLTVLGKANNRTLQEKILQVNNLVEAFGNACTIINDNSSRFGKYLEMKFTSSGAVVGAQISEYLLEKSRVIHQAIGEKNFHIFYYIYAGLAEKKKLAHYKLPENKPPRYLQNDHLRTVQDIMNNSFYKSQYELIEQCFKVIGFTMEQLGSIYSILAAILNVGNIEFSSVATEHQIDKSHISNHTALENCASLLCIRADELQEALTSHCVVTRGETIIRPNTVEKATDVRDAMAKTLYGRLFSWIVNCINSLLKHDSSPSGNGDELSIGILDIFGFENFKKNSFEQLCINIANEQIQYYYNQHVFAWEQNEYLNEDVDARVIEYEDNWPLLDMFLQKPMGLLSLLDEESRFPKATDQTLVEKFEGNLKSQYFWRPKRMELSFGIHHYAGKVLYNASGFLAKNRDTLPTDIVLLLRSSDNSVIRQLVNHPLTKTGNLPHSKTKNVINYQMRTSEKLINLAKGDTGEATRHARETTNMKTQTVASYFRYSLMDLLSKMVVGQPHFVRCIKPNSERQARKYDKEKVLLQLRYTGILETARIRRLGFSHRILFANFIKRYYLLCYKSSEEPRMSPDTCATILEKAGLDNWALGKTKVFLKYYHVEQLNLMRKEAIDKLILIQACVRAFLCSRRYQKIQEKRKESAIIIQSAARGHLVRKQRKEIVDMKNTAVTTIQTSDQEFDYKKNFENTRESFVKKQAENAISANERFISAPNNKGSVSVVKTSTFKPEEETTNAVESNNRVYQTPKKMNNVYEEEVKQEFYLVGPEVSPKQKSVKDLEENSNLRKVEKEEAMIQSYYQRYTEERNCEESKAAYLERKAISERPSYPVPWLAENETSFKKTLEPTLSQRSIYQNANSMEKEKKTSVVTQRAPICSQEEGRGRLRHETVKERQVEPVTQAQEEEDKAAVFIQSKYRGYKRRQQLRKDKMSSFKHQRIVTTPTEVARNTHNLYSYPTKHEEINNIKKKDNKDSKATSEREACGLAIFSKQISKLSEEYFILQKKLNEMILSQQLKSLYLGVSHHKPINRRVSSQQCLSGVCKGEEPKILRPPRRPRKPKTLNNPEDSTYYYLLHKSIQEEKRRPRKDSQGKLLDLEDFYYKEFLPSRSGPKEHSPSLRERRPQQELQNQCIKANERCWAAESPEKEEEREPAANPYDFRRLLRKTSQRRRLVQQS

On to `Cc1cn(CCN2CCN(c3ccccc3-c3cc(C#N)cc(C(=O)NCCCN4CCCC4)c3)CC2)c2ccccc12`, for which the IC50 (in assay [1]; in assay [2]; in [3]; in assay [4]; in assay [5]; at Myosin-IIIa) was greater than 20 µM each time. Moreover, the IC50 in assay [6], in assay [7] and in assay [8] was greater than 20 µM each time. Moreover, in the assay on KYSE-150 cell line, the Activity amounted to 1.6.

As usually defined, the IC50 is the concentration that inhibits the measured activity by half.
